Test results from ChEMBL document CHEMBL3046208, “Natural and synthetic podolactones with potential use as natural herbicide models” (2000).
Calls of active or inactive are those of the source. The rule behind the calls is not given here.

Assays:
[1] = tested on: Allium cepa; test: Inhibition of root length of Allium cepa (onion) at 0.1 mM after 5 days relative to untreated control; assay type: functional
[2] = tested on: Lactuca sativa; test: Inhibition of root length of Lactuca sativa cv. Roman (lettuce) at 0.1 mM after 5 days relative to untreated control; assay type: functional
[3] = tested on: Lactuca sativa; test: Inhibition of germination of Lactuca sativa cv. Nigra (lettuce) at 0.1 mM after 5 days relative to untreated control; assay type: functional
[4] = tested on: Lepidium sativum; test: Inhibition of germination of Lepidium sativum at 0.1 mM after 5 days relative to untreated control; assay type: functional
[5] = tested on: Allium cepa; test: Stimulation of root length of Allium cepa (onion) at 0.1 mM after 5 days relative to untreated control; assay type: functional
[6] = tested on: Solanum lycopersicum; test: Inhibition of shoot length of Solanum lycopersicum (tomato) at 10 uM after 5 days relative to untreated control; assay type: functional, organism-based
[7] = tested on: Lepidium sativum; test: Inhibition of root length of Lepidium sativum at 0.1 mM after 5 days relative to untreated control; assay type: functional; settings: 120 h
[8] = tested on: Hordeum vulgare; test: Stimulation of root length of Hordeum vulgare (barley) at 0.1 mM after 5 days relative to untreated control; assay type: functional
[9] = tested on: Triticum aestivum; test: Stimulation of root length of Triticum aestivum (wheat) at 0.1 mM after 5 days relative to untreated control; assay type: functional
[10] = tested on: Triticum aestivum; test: Inhibition of root length of Triticum aestivum (wheat) at 0.1 mM after 5 days relative to untreated control; assay type: functional; settings: 120 h
[11] = tested on: Allium cepa; test: Stimulation of germination of Allium cepa (onion) at 0.1 mM after 5 days relative to untreated control; assay type: functional
[12] = tested on: Triticum aestivum; test: Stimulation of shoot length of Triticum aestivum (wheat) at 0.1 mM after 5 days relative to untreated control; assay type: functional
[13] = tested on: Solanum lycopersicum; test: Inhibition of shoot length of Solanum lycopersicum (tomato) at 0.1 mM after 5 days relative to untreated control; assay type: functional; settings: 120 h
[14] = tested on: Lactuca sativa; test: Inhibition of shoot length of Lactuca sativa cv. Nigra (lettuce) at 0.1 mM after 5 days relative to untreated control; assay type: functional; settings: 120 h
[15] = tested on: Hordeum vulgare; test: Inhibition of root length of Hordeum vulgare (barley) at 0.1 mM after 5 days relative to untreated control; assay type: functional; settings: 120 h
[16] = tested on: Allium cepa; test: Stimulation of shoot length of Allium cepa (onion) at 0.1 mM after 5 days relative to untreated control; assay type: functional
[17] = tested on: Hordeum vulgare; test: Inhibition of germination of Hordeum vulgare (barley) at 0.1 mM after 5 days relative to untreated control; assay type: functional; settings: 120 h
[18] = tested on: Lepidium sativum; test: Stimulation of germination of Lepidium sativum at 0.1 mM after 5 days relative to untreated control; assay type: functional
[19] = tested on: Solanum lycopersicum; test: Inhibition of root length of Solanum lycopersicum (tomato) at 0.1 mM after 5 days relative to untreated control; assay type: functional; settings: 120 h
[20] = tested on: Lepidium sativum; test: Inhibition of germination of Lepidium sativum at 10 uM after 5 days relative to untreated control; assay type: functional, organism-based
[21] = tested on: Lactuca sativa; test: Stimulation of germination of Lactuca sativa cv. Roman (lettuce) at 0.1 mM after 5 days relative to untreated control; assay type: functional
[22] = tested on: Lactuca sativa; test: Stimulation of shoot length of Lactuca sativa cv. Nigra (lettuce) at 0.1 mM after 5 days relative to untreated control; assay type: functional
[23] = tested on: Triticum aestivum; test: Inhibition of germination of Triticum aestivum (wheat) at 0.1 mM after 5 days relative to untreated control; assay type: functional
[24] = tested on: Solanum lycopersicum; test: Stimulation of root length of Solanum lycopersicum (tomato) at 0.1 mM after 5 days relative to untreated control; assay type: functional
[25] = tested on: Triticum aestivum; test: Inhibition of shoot length of Triticum aestivum (wheat) at 0.1 mM after 5 days relative to untreated control; assay type: functional
[26] = tested on: Lactuca sativa; test: Stimulation of root length of Lactuca sativa cv. Roman (lettuce) at 0.1 mM after 5 days relative to untreated control; assay type: functional
[27] = tested on: Allium cepa; test: Inhibition of shoot length of Allium cepa (onion) at 0.1 mM after 5 days relative to untreated control; assay type: functional; settings: 120 h
[28] = tested on: Lepidium sativum; test: Inhibition of root length of Lepidium sativum at 10 uM after 5 days relative to untreated control; assay type: functional, organism-based
[29] = tested on: Lactuca sativa; test: Inhibition of germination of Lactuca sativa cv. Roman (lettuce) at 0.1 mM after 5 days relative to untreated control; assay type: functional
[30] = tested on: Lepidium sativum; test: Stimulation of shoot length of Lepidium sativum at 0.1 mM after 5 days relative to untreated control; assay type: functional
[31] = tested on: Hordeum vulgare; test: Stimulation of shoot length of Hordeum vulgare (barley) at 0.1 mM after 5 days relative to untreated control; assay type: functional
[32] = tested on: Lactuca sativa; test: Stimulation of root length of Lactuca sativa cv. Nigra (lettuce) at 0.1 mM after 5 days relative to untreated control; assay type: functional
[33] = tested on: Lepidium sativum; test: Inhibition of shoot length of Lepidium sativum at 0.1 mM after 5 days relative to untreated control; assay type: functional; settings: 120 h
[34] = tested on: Hordeum vulgare; test: Stimulation of germination of Hordeum vulgare (barley) at 0.1 mM after 5 days relative to untreated control; assay type: functional
[35] = tested on: Solanum lycopersicum; test: Stimulation of shoot length of Solanum lycopersicum (tomato) at 0.1 mM after 5 days relative to untreated control; assay type: functional
[36] = tested on: Hordeum vulgare; test: Inhibition of shoot length of Hordeum vulgare (barley) at 0.1 mM after 5 days relative to untreated control; assay type: functional; settings: 120 h
[37] = tested on: Lactuca sativa; test: Inhibition of shoot length of Lactuca sativa cv. Roman (lettuce) at 0.1 mM after 5 days relative to untreated control; assay type: functional
[38] = tested on: Lepidium sativum; test: Stimulation of root length of Lepidium sativum at 0.1 mM after 5 days relative to untreated control; assay type: functional
[39] = tested on: Solanum lycopersicum; test: Inhibition of root length of Solanum lycopersicum (tomato) at 10 uM after 5 days relative to untreated control; assay type: functional, organism-based
[40] = tested on: Lactuca sativa; test: Stimulation of germination of Lactuca sativa cv. Nigra (lettuce) at 0.1 mM after 5 days relative to untreated control; assay type: functional
[41] = tested on: Solanum lycopersicum; test: Inhibition of germination of Solanum lycopersicum (tomato) at 10 uM after 5 days relative to untreated control; assay type: functional, organism-based
[42] = tested on: Lactuca sativa; test: Stimulation of shoot length of Lactuca sativa cv. Roman (lettuce) at 0.1 mM after 5 days relative to untreated control; assay type: functional
[43] = tested on: Lactuca sativa; test: Inhibition of root length of Lactuca sativa cv. Nigra (lettuce) at 0.1 mM after 5 days relative to untreated control; assay type: functional
[44] = tested on: Solanum lycopersicum; test: Inhibition of germination of Solanum lycopersicum (tomato) at 0.1 mM after 5 days relative to untreated control; assay type: functional
[45] = tested on: Allium cepa; test: Inhibition of germination of Allium cepa (onion) at 0.1 mM after 5 days relative to untreated control; assay type: functional; settings: 120 h
[46] = tested on: Triticum aestivum; test: Stimulation of germination of Triticum aestivum (wheat) at 0.1 mM after 5 days relative to untreated control; assay type: functional
[47] = tested on: Lepidium sativum; test: Inhibition of shoot length of Lepidium sativum at 10 uM after 5 days relative to untreated control; assay type: functional, organism-based
[48] = tested on: Solanum lycopersicum; test: Stimulation of germination of Solanum lycopersicum (tomato) at 0.1 mM after 5 days relative to untreated control; assay type: functional
[49] = tested on: Solanum lycopersicum; test: Stimulation of root length of Solanum lycopersicum (tomato) at 0.1 uM after 5 days relative to untreated control; assay type: functional

Compound: C[C@@]12CCC[C@]3(C)C4=CC(=O)OCC4=C[C@@H](OC1=O)[C@@H]23
- inhibition at 100 µM ([1]; 120 h): > 40%
- inhibition at 100 µM ([2]; 120 h): > 40%
- inhibition [3]: inactive
- inhibition at 100 µM ([4]; 120 h): > 40%
- Activity [5]: >40%
- inhibition [6]: Active
- inhibition at 100 µM [7]: > 40%
- Activity [8]: >40%
- Activity [9]: 20%
- inhibition at 100 µM [10]: 20%
- Activity [11]: 20%
- Activity [12]: <20%
- inhibition at 100 µM [13]: > 40%
- inhibition at 100 µM [14]: > 40%
- inhibition at 100 µM [15]: > 40%
- Activity [16]: >40%
- inhibition at 100 µM [17]: 20%
- Activity [18]: >40%
- inhibition at 100 µM [19]: > 40%
- inhibition [20]: Active
- Activity [21]: 20%
- Activity [22]: >40%
- inhibition [23]: inactive
- Activity [24]: >40%
- inhibition at 100 µM ([25]; 120 h): < 20%
- Activity [26]: >40%
- inhibition at 100 µM [27]: > 40%
- inhibition [28]: Active
- inhibition at 100 µM ([29]; 120 h): 20%
- Activity [30]: >40%
- Activity [31]: >40%
- Activity [32]: >40%
- inhibition at 100 µM [33]: > 40%
- Activity [34]: 20%
- Activity [35]: >40%
- inhibition at 100 µM [36]: > 40%
- inhibition at 100 µM ([37]; 120 h): > 40%
- Activity [38]: >40%
- inhibition [39]: Active
- Activity [40]: inactive
- inhibition [41]: Active
- Activity [42]: >40%
- inhibition at 100 µM ([43]; 120 h): > 40%
- inhibition at 100 µM ([44]; 120 h): > 40%
- inhibition at 100 µM [45]: 20%
- Activity [46]: inactive
- inhibition [47]: Active
- Activity [48]: >40%

Compound: COC(=O)[C@@]1(C)CCC[C@]2(C)c3cc(=O)occ3CC[C@@H]12
- inhibition [1]: inactive
- inhibition [2]: inactive
- inhibition at 100 µM ([3]; 120 h): < 20%
- inhibition [4]: inactive
- Activity [5]: inactive
- inhibition at 100 µM [7]: 20%
- Activity [8]: 20%
- Activity [9]: <20%
- inhibition at 100 µM [10]: < 20%
- Activity [11]: <20%
- Activity [12]: inactive
- inhibition at 100 µM [13]: < 20%
- inhibition at 100 µM [14]: < 20%
- Activity [49]: 58%
- inhibition at 100 µM [15]: 20%
- Activity [16]: <20%
- inhibition at 100 µM [17]: 20%
- Activity [18]: inactive
- inhibition at 100 µM [19]: > 40%
- Activity [21]: inactive
- Activity [22]: <20%
- inhibition at 100 µM ([23]; 120 h): < 20%
- Activity [24]: >40%
- inhibition [25]: inactive
- Activity [26]: inactive
- inhibition at 100 µM [27]: < 20%
- inhibition [29]: inactive
- Activity [30]: <20%
- Activity [31]: <20%
- Activity [32]: inactive
- inhibition at 100 µM [33]: < 20%
- Activity [34]: 20%
- Activity [35]: <20%
- inhibition at 100 µM [36]: < 20%
- inhibition [37]: inactive
- Activity [38]: 20%
- Activity [40]: <20%
- Activity [42]: inactive
- inhibition [43]: inactive
- inhibition [44]: inactive
- inhibition at 100 µM [45]: < 20%
- Activity [46]: <20%
- Activity [48]: inactive
